# Measurements published in publication PMC3914206.
# Tests used:
# panel of 442 kinases [1] = target: T1, panel of 442 kinases (Homo sapiens, UniProt P54762); type: binding; conditions: Compound Concentration 10 µM
# T1 construct: purchased KINOMEscan
# T1 sequence (P54762 18-984): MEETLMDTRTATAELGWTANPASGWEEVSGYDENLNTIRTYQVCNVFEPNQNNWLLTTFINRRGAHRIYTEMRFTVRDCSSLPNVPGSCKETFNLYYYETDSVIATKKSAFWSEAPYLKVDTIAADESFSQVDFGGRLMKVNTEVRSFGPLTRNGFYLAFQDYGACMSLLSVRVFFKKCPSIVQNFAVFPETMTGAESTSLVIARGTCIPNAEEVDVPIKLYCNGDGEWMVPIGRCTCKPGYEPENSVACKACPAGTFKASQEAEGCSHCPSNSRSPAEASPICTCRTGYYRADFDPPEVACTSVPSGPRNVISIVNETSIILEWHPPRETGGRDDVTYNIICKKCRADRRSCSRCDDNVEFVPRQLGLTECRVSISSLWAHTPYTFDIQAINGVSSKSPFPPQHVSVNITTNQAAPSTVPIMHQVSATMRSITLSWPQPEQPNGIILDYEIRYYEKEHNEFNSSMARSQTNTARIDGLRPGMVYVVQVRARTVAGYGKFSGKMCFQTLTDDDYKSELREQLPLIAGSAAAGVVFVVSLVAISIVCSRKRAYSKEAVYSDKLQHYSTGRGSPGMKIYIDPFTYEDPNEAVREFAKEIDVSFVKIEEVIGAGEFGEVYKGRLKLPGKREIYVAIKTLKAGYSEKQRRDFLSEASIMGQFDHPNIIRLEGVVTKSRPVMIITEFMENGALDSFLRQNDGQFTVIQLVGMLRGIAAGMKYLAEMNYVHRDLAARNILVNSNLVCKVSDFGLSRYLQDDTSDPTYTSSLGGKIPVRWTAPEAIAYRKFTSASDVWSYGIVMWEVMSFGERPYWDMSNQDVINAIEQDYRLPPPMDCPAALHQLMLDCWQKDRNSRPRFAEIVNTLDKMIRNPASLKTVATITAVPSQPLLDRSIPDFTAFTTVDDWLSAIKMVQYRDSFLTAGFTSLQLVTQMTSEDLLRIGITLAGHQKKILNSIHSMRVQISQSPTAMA
# Text: (§1) We assessed the selectivity of members of this scaffold using the KINOMEscan methodology across a near comprehensive panel of 442 kinases [[18,27]].
# panel of 442 kinases [2] = target: T2, panel of 442 kinases (Homo sapiens, UniProt P42679); type: binding; conditions: Compound Concentration 10 µM
# T2 construct: purchased KINOMEscan
# T2 sequence (P42679 1-507): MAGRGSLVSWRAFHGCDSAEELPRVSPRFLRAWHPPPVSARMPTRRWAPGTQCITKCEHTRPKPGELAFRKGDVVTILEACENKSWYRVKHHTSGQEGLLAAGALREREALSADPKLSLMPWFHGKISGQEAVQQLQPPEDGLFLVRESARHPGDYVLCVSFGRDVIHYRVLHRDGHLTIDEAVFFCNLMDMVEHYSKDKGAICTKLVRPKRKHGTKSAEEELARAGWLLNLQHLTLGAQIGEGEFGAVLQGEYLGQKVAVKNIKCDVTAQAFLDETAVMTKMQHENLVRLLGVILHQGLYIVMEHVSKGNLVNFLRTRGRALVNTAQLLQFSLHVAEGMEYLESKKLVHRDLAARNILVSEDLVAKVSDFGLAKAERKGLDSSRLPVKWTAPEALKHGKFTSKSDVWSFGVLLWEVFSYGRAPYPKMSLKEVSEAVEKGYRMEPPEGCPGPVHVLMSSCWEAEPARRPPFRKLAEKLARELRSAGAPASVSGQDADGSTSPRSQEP
# Text: as §1
smiles,measurement,setting,value
COc1cc(C(=O)N2CCC(N3CCN(C)CC3)CC2)ccc1Nc1ncc2c(n1)N(C)c1ccccc1C(=O)N2C [15 (LRRK2-IN-1)],KINOMEscan: EPHB1,panel of 442 kinases [1],98
same,KINOMEscan: CTK,panel of 442 kinases [2],100
"COc1cc(C(=O)N2CCC(N3CCN(C)CC3)CC2)ccc1Nc1ncc2c(n1)N(C1CCCC1)c1ccccc1C(=O)N2C [Compound 25, 11-cyclopentyl-2-((2-methoxy-4-(4-(4-methylpiperazin-1-yl)piperidine-1-carbonyl)phenyl)amino)-5-methyl-5H-benzo[e]pyrimido[5,4-b][1,4]diazepin-6(11H)-one]",KINOMEscan: EPHB1,panel of 442 kinases [1],95
same,KINOMEscan: CTK,panel of 442 kinases [2],100
CCOc1cc(C(=O)N2CCC(N3CCN(C)CC3)CC2)ccc1Nc1ncc2c(n1)N(C1CCCC1)c1ccccc1C(=O)N2C [Compound 26],KINOMEscan: EPHB1,panel of 442 kinases [1],95
same,KINOMEscan: CTK,panel of 442 kinases [2],89
